Measured values: US9505796B2, “Phosphorylated A2A receptor agonists” (Crozet Medical GMBH, priority 2006, dated 2016)
Values joined by “and” are separate entries in the source; they are usually repeats but may differ in a detail not shown here. Equal entries are not always repeated.

Legend:
[1] = target: T1, A3 receptor human recombinant receptors expressed in CHO cells (Homo sapiens, UniProt P0DMS8); test: A3 adenosine receptor radioligand binding vs. [3H]PSB-11; details: human recombinant receptors in CHO cells vs. [3H]PSB-11 (antagonist radioligand; agonist affinities underestimated)
T1 construct: expressed in transfected cells; host or cells: CHO cells
T1 sequence (P0DMS8 1-318): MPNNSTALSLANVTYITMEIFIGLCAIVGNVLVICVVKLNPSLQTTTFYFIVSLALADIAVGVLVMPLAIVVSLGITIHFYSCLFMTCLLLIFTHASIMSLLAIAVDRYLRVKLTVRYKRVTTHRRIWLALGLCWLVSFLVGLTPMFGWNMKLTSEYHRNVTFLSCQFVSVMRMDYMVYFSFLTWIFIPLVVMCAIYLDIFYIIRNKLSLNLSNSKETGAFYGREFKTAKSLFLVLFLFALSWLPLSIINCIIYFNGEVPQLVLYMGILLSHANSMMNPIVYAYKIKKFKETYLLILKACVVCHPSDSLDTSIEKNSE
From the text: (§1) Tris was obtained from Acros Organics (Leverkusen, Germany); DMSO was from Fluka (Switzerland), HCl was from Merck, HAT supplement from Gibco. [^3H]CCPA ([^3H]2-chloro-N^6-cyclopentyladenosine), [^3H]MSX-2 ([^3H]3-(3-hydroxypropyl)-7-methyl-8-(m-methoxy-styryl)-1-propargylxanthine) (84 Ci/mmol), and [^3H]DSB-11 ([^3H]8-ethyl-4-methyl-2-phenyl-(8R)-4,5,7,8-tetrahydro-1H-imidazo[2,1-i]-purin-5-one (53 Ci/mmol)) were custom-labeled by Amersham. All other chemical reagents, cell culture materials and adenosine receptor ligands were obtained from Sigma.
(§2) Radioligand binding studies were performed as previously described.^7,8

[2] = target: T2, recombinant soluble glutathione-S-transferase/ecto-5′-nucleotidase fusion protein (rat enzyme) (Rattus norvegicus, UniProt P21588); test: Ecto-5′-nucleotidase substrate specificity assay by capillary electrophoresis; type: biochemical; details: 500 μM nucleoside 5′-monophosphate, 37° C., 20 min; relative to AMP set at 100%; n = 3
T2 construct: Catalytically active recombinant soluble glutathione-S-transferase/ecto-5′-nucleotidase fusion protein; Dr. Herbert Zimmermann, University of Frankfurt (gift); host or cells: insect cells, baculovirus system
T2 sequence (P21588 29-551 limits assumed): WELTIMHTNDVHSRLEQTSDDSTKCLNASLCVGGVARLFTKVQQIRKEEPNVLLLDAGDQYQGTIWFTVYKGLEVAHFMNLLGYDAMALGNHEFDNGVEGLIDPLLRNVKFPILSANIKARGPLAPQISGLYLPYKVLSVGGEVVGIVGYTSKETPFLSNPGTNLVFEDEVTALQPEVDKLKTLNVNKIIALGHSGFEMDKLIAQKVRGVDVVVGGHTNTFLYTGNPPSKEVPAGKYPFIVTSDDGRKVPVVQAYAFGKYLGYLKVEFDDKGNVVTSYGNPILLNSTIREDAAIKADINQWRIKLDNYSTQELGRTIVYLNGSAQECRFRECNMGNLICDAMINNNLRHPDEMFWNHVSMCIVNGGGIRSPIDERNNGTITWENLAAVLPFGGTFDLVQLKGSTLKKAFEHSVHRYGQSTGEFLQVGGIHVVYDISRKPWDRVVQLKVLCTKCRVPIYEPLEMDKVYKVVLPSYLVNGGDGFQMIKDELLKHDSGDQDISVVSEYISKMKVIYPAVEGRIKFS
Description: Catalytically active recombinant soluble glutathione-S-transferase/ecto-5′-nucleotidase fusion protein (rat enzyme) was expressed in insect cells using the baculovirus system and purified by affinity chromatography using agarose-coupled GSH as previously described.^6 The enzyme was obtained from Prof. Dr. Herbert Zimmermann, University of Frankfurt.
Compounds were dissolved in DMSO to obtain 5.0 mM stock solutions. These were further diluted to obtain 1 mM solutions in assay buffer (10 mM Hepes, pH 7.4, 2 mM MgCl2, 1 mM CaCl2). The 1 mM solutions were further diluted in the same buffer as required for the standard calibration curves and the enzyme assays.
CE separations were carried out using a P/ACE MDQ system (Beckman Coulter Instruments, Fullerton, Calif., USA) equipped with a DAD detection system. The electrophoretic separations were carried out using an eCAP fused-silica capillary [30 cm (20 cm effective length), ×75 μm internal diameter (I.D), ×375 μm outside diameter (0.D) obtained from Beckman Coulter]. The following conditions were applied: T=25° C., λmax=232 nm, voltage=15 kV, running buffer 40 mM sodium borate buffer, pH 9.1. The capillary was washed with 0.1 M NaOH for 2 min, deionized water for 1 min, and running buffer for 1 min before each injection. Injections were made by applying 0.1 psi of pressure to the sample solution for 30 s. The amount of adenosine or other nucleosides formed was determined. The CE instrument was fully controlled through a personal computer, which operated with the analysis software 32 KARAT obtained from Beckman Coulter. Electropherograms were evaluated using the same software.
Ecto-5′-nucleotidase substrate specificity assays were performed by using capillary electrophoresis method. Enzyme substrate assays were carried out at 37° C. in a final volume of 100 μl. The reaction mixture contained 500 μM of the nucleoside 5′-monophosphate to be investigated dissolved in reaction buffer (10 mM Hepes, pH 7.4, 2 mM MgCl2, 1 mM CaCl2). The reactions were initiated by adding 10 μl of the appropriately diluted enzyme and was then allowed to proceed at 37° C. for 20 min. The reaction was stopped by heating the mixture at 99° C. for 5 min. Aliquots of 50 μl of the reaction mixture were transferred to mini CE vials and injected into the CE instrument under the conditions described above. The absorbance at 232 nm was monitored continuously and the nucleoside concentrations were determined from the area under each absorbance peak. The experiments were repeated twice with triplicate injections. Control experiments were performed in the absence of substrate and in the absence of enzyme in order to take into account the spontaneous hydrolysis of nucleoside-5′ monophosphates under the experimental conditions, which always amounted to less than 1%.
For the quantification of the dephosphorylation reaction products, we applied the internal normalization method. Thus, the individual peak areas reflected directly the relative content of a corresponding analyte. […] It was verified that in fact there were no observable differences in detector response at the used wavelength and thus no additional correction factors had to be employed for the calculation of the amount of product relative to the amount of substrate. This method is also completely independent of the amount of substrate injected into the capillary which represents 100% at zero reaction time.
Besides AMP, other nucleoside 5′-monophosphates (FIG. 1) were investigated as alternative substrates of ecto-5′-NT. All nucleotides (AMP) were used at a concentration of 500 μM in the presence of 2 mM MgCl2, 1 mM CaCl2, 10 mM Hepes, pH, 7.4, and suitably diluted ecto-5′-NT. Some of the nucleoside 5′-monophosphates were efficiently dephosphorylated to the corresponding nucleosides by the enzyme (Table 1).

[3] = target: T3, A2A receptor rat brain striatal membranes (Rattus norvegicus, UniProt P30543); test: A2A adenosine receptor radioligand binding, rat brain striatal membranes
T3 construct: A2A receptor rat brain; from tissue; host or cells: rat brain striatal membranes
From the text: as §1, §2

[4] = target: T4, A1 receptor rat brain cortical membranes (Rattus norvegicus, UniProt P25099); test: A1 adenosine receptor radioligand binding vs. [3H]CCPA; details: rat brain cortical membranes vs. [3H]CCPA (agonist radioligand)
T4 construct: A1 receptor rat brain; from tissue; host or cells: rat brain cortical membranes
T4 sequence (P25099 1-326): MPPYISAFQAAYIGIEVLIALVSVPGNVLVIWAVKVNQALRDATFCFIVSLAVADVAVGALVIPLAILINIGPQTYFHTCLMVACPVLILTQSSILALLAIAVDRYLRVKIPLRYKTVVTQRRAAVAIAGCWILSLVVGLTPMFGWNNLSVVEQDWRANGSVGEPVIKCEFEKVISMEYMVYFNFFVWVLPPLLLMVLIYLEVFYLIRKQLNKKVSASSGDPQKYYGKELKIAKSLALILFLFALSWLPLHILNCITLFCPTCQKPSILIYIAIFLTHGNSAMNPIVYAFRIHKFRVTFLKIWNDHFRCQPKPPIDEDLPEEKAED
From the text: as §1, §2

[5] = rat brain striatal membranes vs. [3H]MSX-2 (antagonist radioligand; agonist affinities underestimated)

T3 sequence (P30543 whole entry): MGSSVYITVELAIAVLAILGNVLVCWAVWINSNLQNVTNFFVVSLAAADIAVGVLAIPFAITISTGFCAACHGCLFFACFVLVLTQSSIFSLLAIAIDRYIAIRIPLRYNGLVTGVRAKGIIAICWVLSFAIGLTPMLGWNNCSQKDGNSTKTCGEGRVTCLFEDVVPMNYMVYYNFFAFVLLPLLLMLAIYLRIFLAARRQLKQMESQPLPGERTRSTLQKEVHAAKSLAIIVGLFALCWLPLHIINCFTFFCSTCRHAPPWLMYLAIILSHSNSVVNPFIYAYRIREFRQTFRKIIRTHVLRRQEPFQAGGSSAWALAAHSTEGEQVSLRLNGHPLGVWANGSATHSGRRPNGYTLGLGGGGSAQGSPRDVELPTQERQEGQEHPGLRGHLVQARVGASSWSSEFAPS

Dephosphorylation (%) by ecto-5′-nucleotidase in comparison with AMP [2] | Compound | Ki [1] [nM] | also measured
– | 2-(Phenylethylthio)adenosine-5′-monophosphate [Compound 9] | 1200 | –
0% | C=CCSc1nc(N)c2ncn([C@@H]3O[C@H](COP(=O)(O)O)[C@@H](O)[C@H]3O)c2n1 [Compound 5, 2-(Allylthio)adenosine-5′-monophosphate] | – | –
100 ± 1.15% | Nc1ncnc2c1ncn2[C@@H]1O[C@H](COP(=O)(O)O)[C@@H](O)[C@H]1O [AMP, adenosine monophosphate, reference compound] | – | –
– | 2-(Cyclohexylethylthio)adenosine-5′-monophosphate [Compound 3] | 3600 | –
84.2 ± 2.61% | CCCCCCSc1nc(N)c2ncn([C@@H]3O[C@H](COP(=O)(O)O)[C@@H](O)[C@H]3O)c2n1 [Compound 6, 2-(Hexylthio)adenosine-5′-monophosphate] | – | –
0% | Nc1nc(SCc2ccccc2)nc2c1ncn2[C@@H]1O[C@H](COP(=O)(O)O)[C@@H](O)[C@H]1O [Compound 8, 2-(Benzylthio)adenosine-5′-monophosphate] | – | –
– | 2-(Cyclohexylmethylthio)adenosine-5′-monophosphate [Compound 2] | 1700 | –
70.5 ± 1.17% | Nc1nc(SCC2CCCCC2)nc2c1ncn2[C@@H]1O[C@H](COP(=O)(O)O)[C@@H](O)[C@H]1O [Compound 2, 2-(Cyclohexylmethylthio)adenosine-5′-monophosphate] | – | –
– | 2-(Benzylthio)adenosine-5′-monophosphate [Compound 8] | 120 | Ki [3, 5]: 8560 nM; Ki [4]: 927 nM
0% | Nc1nc(SCCc2ccccc2)nc2c1ncn2[C@@H]1O[C@H](COP(=O)(O)O)[C@@H](O)[C@H]1O [Compound 9, 2-(Phenylethylthio)adenosine-5′-monophosphate] | – | –
– | 2-(Hexylthio)adenosine-5′-monophosphate [Compound 6] | 2300 | Ki [3, 5]: 1000 nM; Ki [4]: 256 nM
– | C#CCSc1nc(N)c2ncn([C@@H]3O[C@H](COP(=O)(O)O)[C@@H](O)[C@H]3O)c2n1 [Example No. 10, 2-Propargylthioadenosine-5′-monophosphate] | 10400 | Ki [4]: 994 nM
– | 2-(Propylthio)adenosine-5′-monophosphate [Compound 4] | – | Ki ([3]; rat brain striatal membranes vs. [3H]CGS21680 (agonist radioligand)): 1350 nM; Ki [4]: 1270 nM
46.8 ± 10.5% | CCCSc1nc(N)c2ncn([C@@H]3O[C@H](COP(=O)(O)O)[C@@H](O)[C@H]3O)c2n1 [Compound 4, 2-(Propylthio)adenosine-5′-monophosphate] | – | –
27.5 ± 1.45% | Nc1nc(SC2CCCCC2)nc2c1ncn2[C@@H]1O[C@H](COP(=O)(O)O)[C@@H](O)[C@H]1O [Compound 1, 2-(Cyclohexylthio)adenosine-5′-monophosphate] | – | –
95% and 95.7 ± 1.15% | Nc1nc(SCCC2CCCCC2)nc2c1ncn2[C@@H]1O[C@H](COP(=O)(O)O)[C@@H](O)[C@H]1O [Compound 3, 2-(Cyclohexylethylthio)adenosine-5′-monophosphate] | – | –
